Source: ChEMBL document CHEMBL5653615 (J Biol Chem, 2013)

Tests used:
[1] = molecular target: T1, Serine/threonine-protein kinase BRSK1 (Homo sapiens) (UniProt Q8TDC3); test: Inhibition of human BRSK1 at 18.6 nM by HotSpot assay relative to control
T1 sequence (whole entry): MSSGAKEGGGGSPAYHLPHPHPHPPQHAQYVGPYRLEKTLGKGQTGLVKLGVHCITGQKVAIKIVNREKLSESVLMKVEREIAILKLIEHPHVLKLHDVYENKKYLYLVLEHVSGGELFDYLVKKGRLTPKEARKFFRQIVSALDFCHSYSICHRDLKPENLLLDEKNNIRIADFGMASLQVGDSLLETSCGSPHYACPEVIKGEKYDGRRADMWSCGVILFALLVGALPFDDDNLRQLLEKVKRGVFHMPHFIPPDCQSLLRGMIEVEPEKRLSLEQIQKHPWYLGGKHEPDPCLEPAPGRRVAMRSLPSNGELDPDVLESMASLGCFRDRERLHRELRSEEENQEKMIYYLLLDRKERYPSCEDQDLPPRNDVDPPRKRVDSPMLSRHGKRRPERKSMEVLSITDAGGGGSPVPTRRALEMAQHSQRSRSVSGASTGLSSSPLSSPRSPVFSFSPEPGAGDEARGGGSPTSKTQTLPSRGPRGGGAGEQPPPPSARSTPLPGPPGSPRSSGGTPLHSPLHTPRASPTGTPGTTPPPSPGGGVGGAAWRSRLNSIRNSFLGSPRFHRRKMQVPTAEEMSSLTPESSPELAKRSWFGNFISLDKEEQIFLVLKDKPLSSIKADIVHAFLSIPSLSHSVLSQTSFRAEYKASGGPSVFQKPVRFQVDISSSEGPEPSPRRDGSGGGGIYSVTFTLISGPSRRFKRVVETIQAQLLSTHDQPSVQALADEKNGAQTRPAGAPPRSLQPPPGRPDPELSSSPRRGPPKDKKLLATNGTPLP

[2] = molecular target: T2, Testis-specific serine/threonine-protein kinase 2 (Homo sapiens) (UniProt Q96PF2); test: Inhibition of human TSSK2 at 18.6 nM by HotSpot assay relative to control
T2 sequence (whole entry): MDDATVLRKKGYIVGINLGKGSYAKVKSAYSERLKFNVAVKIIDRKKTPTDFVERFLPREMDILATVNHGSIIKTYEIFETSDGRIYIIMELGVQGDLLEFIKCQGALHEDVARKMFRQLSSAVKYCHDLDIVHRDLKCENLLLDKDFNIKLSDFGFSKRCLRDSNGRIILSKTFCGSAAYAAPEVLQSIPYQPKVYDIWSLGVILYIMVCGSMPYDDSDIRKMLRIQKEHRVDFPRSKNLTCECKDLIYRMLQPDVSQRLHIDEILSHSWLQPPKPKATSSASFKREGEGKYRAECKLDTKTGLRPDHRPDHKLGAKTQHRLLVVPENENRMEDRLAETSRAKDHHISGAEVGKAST

[3] = molecular target: T3, Inhibitor of nuclear factor kappa-B kinase subunit beta (Homo sapiens) (UniProt O14920); test: Inhibition of human IKKb at 18.6 nM by HotSpot assay relative to control
T3 sequence (whole entry): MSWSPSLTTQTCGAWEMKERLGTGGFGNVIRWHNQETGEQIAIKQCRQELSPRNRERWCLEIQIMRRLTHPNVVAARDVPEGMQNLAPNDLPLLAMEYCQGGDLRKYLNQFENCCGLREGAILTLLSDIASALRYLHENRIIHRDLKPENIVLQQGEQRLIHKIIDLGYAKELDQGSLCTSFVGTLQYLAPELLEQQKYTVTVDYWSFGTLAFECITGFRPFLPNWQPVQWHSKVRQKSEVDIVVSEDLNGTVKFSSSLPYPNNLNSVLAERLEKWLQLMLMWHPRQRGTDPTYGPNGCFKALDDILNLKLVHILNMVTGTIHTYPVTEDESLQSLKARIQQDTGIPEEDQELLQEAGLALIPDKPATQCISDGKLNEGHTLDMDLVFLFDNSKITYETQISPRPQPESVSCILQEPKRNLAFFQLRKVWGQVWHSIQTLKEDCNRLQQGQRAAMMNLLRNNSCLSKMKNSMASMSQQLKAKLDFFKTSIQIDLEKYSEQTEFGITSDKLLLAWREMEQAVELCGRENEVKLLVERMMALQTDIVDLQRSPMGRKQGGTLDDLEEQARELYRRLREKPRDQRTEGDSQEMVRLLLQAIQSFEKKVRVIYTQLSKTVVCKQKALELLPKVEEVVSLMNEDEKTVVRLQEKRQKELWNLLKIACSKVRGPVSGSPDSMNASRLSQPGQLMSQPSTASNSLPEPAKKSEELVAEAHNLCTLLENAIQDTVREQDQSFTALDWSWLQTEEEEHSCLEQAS

[4] = molecular target: Serine/threonine-protein kinase pim-3 (Homo sapiens) (UniProt Q86V86); test: Inhibition of human PIM3 at 18.6 nM by HotSpot assay relative to control
[5] = molecular target: Dual specificity mitogen-activated protein kinase kinase 1 (Homo sapiens) (UniProt Q02750); test: Inhibition of human MEK1 at 18.6 nM by HotSpot assay relative to control
[6] = molecular target: Interleukin-1 receptor-associated kinase 1 (Homo sapiens) (UniProt P51617); test: Inhibition of human IRAK1 at 18.6 nM by HotSpot assay relative to control
[7] = molecular target: RAC-alpha serine/threonine-protein kinase (Homo sapiens) (UniProt P31749); test: Inhibition of human AKT1 at 18.6 nM by HotSpot assay relative to control
[8] = molecular target: T4, Protein kinase C iota type (Homo sapiens) (UniProt P41743); test: Inhibition of human PKCiota at 1.82 nM by HotSpot assay relative to control
T4 sequence (whole entry): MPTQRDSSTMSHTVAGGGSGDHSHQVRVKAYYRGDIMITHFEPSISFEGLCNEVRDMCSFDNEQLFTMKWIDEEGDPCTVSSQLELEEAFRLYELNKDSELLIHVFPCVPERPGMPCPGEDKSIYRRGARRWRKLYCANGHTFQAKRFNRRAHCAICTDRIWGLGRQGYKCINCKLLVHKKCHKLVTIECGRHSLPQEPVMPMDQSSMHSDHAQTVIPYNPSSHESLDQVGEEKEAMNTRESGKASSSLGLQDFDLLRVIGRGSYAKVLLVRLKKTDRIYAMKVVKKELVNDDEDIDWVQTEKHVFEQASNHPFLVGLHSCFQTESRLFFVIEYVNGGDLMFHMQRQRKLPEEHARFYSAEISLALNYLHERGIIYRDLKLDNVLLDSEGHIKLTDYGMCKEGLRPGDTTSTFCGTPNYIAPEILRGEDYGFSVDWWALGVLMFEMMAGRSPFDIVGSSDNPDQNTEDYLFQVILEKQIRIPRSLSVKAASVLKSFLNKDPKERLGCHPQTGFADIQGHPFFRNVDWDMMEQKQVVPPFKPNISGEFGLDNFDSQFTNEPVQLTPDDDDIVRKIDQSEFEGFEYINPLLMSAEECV

[9] = molecular target: Serine/threonine-protein kinase PLK2 (Homo sapiens) (UniProt Q9NYY3); test: Inhibition of human PLK2 at 1.82 nM by HotSpot assay relative to control
Serine/threonine-protein kinase PLK2 (Homo sapiens), sequence (Q9NYY3 whole entry, looked up): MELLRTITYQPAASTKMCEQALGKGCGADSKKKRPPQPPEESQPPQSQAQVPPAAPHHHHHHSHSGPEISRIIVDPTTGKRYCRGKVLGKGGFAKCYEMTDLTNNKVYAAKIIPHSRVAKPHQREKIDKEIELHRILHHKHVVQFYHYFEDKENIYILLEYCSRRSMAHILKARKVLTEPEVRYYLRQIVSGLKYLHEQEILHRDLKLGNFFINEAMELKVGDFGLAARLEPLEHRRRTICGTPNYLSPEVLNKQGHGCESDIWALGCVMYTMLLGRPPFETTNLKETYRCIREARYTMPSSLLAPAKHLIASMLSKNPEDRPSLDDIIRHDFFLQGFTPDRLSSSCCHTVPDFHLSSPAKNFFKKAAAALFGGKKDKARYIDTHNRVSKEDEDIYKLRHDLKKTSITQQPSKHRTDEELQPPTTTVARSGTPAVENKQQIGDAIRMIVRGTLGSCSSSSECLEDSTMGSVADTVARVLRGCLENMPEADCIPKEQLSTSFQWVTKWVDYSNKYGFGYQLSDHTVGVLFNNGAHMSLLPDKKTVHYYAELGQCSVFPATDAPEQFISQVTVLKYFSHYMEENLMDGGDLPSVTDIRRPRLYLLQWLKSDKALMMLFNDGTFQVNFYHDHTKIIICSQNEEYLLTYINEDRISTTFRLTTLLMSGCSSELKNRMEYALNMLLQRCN

Dual specificity mitogen-activated protein kinase kinase 1 (Homo sapiens), sequence (Q02750 whole entry): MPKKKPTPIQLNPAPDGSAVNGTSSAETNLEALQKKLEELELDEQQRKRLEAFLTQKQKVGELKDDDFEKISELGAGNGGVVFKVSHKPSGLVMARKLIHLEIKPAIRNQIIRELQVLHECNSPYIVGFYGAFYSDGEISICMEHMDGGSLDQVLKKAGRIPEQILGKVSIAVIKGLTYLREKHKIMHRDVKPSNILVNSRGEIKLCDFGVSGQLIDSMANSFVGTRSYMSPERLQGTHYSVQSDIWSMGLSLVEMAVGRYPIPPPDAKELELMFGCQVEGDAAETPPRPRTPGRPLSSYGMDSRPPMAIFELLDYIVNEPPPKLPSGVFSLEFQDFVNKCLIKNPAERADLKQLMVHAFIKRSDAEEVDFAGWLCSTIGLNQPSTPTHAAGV
RAC-alpha serine/threonine-protein kinase (Homo sapiens), sequence (P31749 whole entry): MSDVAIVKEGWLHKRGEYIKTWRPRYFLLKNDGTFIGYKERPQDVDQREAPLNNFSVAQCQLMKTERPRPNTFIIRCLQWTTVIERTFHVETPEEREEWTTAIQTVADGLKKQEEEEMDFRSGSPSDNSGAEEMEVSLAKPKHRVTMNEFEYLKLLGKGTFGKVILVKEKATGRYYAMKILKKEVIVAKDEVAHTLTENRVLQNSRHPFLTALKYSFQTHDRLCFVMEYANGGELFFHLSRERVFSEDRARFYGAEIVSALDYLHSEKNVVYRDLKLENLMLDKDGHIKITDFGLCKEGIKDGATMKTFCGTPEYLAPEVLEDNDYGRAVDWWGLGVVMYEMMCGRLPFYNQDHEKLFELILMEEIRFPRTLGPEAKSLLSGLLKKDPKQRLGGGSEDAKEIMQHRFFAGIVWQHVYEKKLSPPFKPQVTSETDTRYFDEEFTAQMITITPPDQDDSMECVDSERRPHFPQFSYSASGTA
Interleukin-1 receptor-associated kinase 1 (Homo sapiens), sequence (P51617 whole entry, looked up): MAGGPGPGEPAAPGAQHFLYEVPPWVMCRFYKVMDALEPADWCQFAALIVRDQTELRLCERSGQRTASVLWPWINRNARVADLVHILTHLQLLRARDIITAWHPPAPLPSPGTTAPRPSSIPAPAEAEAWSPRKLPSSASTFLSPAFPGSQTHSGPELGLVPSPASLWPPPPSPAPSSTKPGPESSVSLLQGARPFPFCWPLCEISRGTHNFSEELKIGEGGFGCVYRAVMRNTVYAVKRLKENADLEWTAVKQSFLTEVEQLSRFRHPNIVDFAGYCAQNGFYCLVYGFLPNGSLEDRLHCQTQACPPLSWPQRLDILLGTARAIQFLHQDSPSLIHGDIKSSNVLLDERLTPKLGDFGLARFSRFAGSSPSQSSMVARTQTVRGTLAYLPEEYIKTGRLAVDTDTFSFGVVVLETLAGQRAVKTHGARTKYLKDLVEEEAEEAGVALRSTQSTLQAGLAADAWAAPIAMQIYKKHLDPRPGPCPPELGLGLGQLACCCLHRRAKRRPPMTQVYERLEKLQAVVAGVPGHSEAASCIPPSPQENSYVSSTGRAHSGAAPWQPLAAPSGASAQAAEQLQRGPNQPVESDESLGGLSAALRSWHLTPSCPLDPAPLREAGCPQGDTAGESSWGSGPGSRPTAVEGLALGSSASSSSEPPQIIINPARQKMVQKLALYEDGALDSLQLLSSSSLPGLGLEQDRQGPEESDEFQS

inhibition [1] [%]	inhibition [2] [%]	inhibition [3] [%]	inhibition [4] [%]	inhibition [5] [%]	inhibition [6] [%]	inhibition [7] [%]	inhibition [8] [%]	inhibition [9] [%]	Structure (SMILES)
-2.86	-3.7	-2.87	20.9	-8.63	-8.8	-3.01			C[C@]1(O)C[C@@H](c2nc(-c3ccc4ccc(-c5ccccc5)nc4c3)c3c(N)nccn32)C1
							-0.86	1.2	C[C@@]1(C(=O)Nc2ccc(F)nc2)CCCN1c1nc(Nc2cc(C3CC3)n[nH]2)c2cccn2n1
